What all share (type): cell-based, human
The test system of one assay is luminal MECs. Nature of the assay: Migration assay, primary luminal cells after pre-treatment. Particulars: 5-day treatment. The source says: FIGS. 7A-7G. Migratory and self-renewal properties in primary MECs: inhibition and induction. (FIG. 7A) Mammosphere Assay: microscopy images of mammospheres and quantification of mammosphere formation by purified basal, luminal and unsorted MEC populations. Primary spheres were allowed to form over a period of 7 days, dissociated and seeded for secondary sphere formation, n(mammosphere)/1000 cells, n=48, (FIG. 7B) Migration Assay: microscopy images of migrated cells in Boyden Chambers and quantification, n=6. (FIG. 7C) Mammosphere Assay: basal cells were seeded into assay after a 5 day pre-treatment with TGF-beta inhibitors A83-01 and […] (SB43, both inhibitors at 10 μM) as well as recombinant SFRP1 (1 μg/ml), n(mammospheres)/1000 cells, n=6. (FIG. 7D) Migration Assay: basal cells were seeded into migration assays treated after 5 day pre-treatment as described in (C), n=24. (FIG. 7E) Mammosphere Assay: luminal cells were seeded into the assay following a 5 day pre-treatment with TGF-beta 1 (5 ng/ml), Wnt5a (250 ng/ml), anti-E-Cadherin antibody (1 μg/ml) plus anti-DKK1 antibody (10 μg/ml), and a cocktail of all factors added together (iEMT-II), n(mammospheres)/1000 cells, n=24. (FIG. 7F) Migration Assay: luminal cells were seeded into Boyden Chambers following a 5 day pre-treatment as described in (E), n=6. […]

The test system of assay [1] is Smad transcriptional activity. Nature of the assay: Smad luciferase reporter assay (SBE4-luc), HMLE^24+ cells. Particulars: HMLE^24+ cells treated with TGF-beta (5 ng/ml, 30 min). The source says: FIGS. 12A-12F. Concomitant stimulation of Wnt and TGF-beta pathways allows HMLE^24+ cells to enter into a mesenchymal and SC-like state. (FIG. 12A) RT-PCR: SFRP1, L32 was loading control, n=3; SFRP1 mRNA levels in HMLE^24+ stably expressing two hairpin-encoding vectors (shSFRP1a and -b) compared cells expressing a control hairpin targeting GFP (shGFP), HMLE^24+-shSFRP1b were used for iEMT experiments. (FIG. 12B) Flow cytometry: Expression of CD44 and CD24 cell-surface markers in HMLE, HMLE^24+-shGFP and -shSFRP1 cells. […] (FIG. 12F) Growth curves: proliferation of indicated cell lines was monitored by the MTS assay for 3 days, 8 passages after cessation of 14 day treatment as described in (D), n=12.
Luciferase assays. […] Lysates were collected 24-48 hr after transfection, and firefly and Renilla luciferase activities were measured with a Dual-Luciferase Reporter System (Promega).
(A reporter such as luciferase makes a cellular process visible.)

Another assay relates to primary MECs. The assay is described as follows: Proliferation of primary MECs. Particulars: data not shown. The source says: We also undertook to test whether the autocrine loops operating in HTwist and MSP cells enabled basal MECs to maintain their self-renewal and migratory abilities. […] In addition, we blocked autocrine Wnt signaling through application of recombinant SFRP1. After a 5-day, daily treatment with both TGF-beta inhibitors or SFRP1 in monolayer cultures, basal cells were submitted to migration and mammosphere assays in the absence of further treatment.
Primary mammary epithelial cell culture. Single-cell suspensions of primary human mammary epithelial cells (MECs) were generated from reduction mammoplasties of pre-menopausal women as previously described (Stingl et al., 2001), Data from three donors are included in this study. Primary MECs were cultured on collagen I-coated plates (Millipore) in MEGM medium (Lonza) supplemented with 1% Fetal Bovine Serum in a humidified 4% O2, 5% CO2, atmosphere.

For “TGF-beta 1: recombinant TGF-beta 1 protein, used at 5 ng/ml”, the “increase in motile cells” value with luminal MECs is listed as 8 fold. Also, in assay [1], the “upregulation of Smad-reporter activity” value worked out at 1.5 fold.

B1: BMP4: Recombinant BMP4 protein obtained from Stemgent (protein, UniProt P12644 293-408, looked up)
Bone morphogenetic protein 4: SPKHHSQRARKKNKNCRRHSLYVDFSDVGWNDWIVAPPGYQAFYCHGDCPFPLADHLNSTNHAIVQTLVNSVNSSIPKACCVPTELSAISMLYLDEYDKVVLKNYQEMVVEGCGCR
On to B1, for which the “effect on proliferation of primary MECs” value in the assay on primary MECs is listed as “strong anti-proliferative effect”.
